Values joined by “and” are separate entries in the source; they are usually repeats but may differ in a detail not shown here. Identical values can stand only once.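 Following 48 hours of exposure in 96-well plates, responses at five concentrations were used to interpolate endpoints linearly. GI50 marks 50% less growth. TGI is the concentration that stops growth completely.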
Legend:
Assay in all cases: growth of human tumour cells (NCI), 48 h
UACC-257 melanoma = system: UACC-257 melanoma
EKVX NSCLC = system: EKVX NSCLC
NCI-H23 lung = system: NCI-H23 lung
CAKI-1 renal = system: CAKI-1 renal
SK-OV-3 ovarian = system: SK-OV-3 ovarian
SF-268 CNS = system: SF-268 CNS
SR leukemia = system: SR leukemia
HOP-92 NSCLC = system: HOP-92 NSCLC
A498 renal = system: A498 renal
U251 CNS = system: U251 CNS

| SMILES | GI50 (UACC-257 melanoma) | TGI (UACC-257 melanoma) | GI50 (EKVX NSCLC) | TGI (EKVX NSCLC) | GI50 (NCI-H23 lung) | TGI (NCI-H23 lung) | GI50 (CAKI-1 renal) | TGI (CAKI-1 renal) | GI50 (SK-OV-3 ovarian) | TGI (SK-OV-3 ovarian) | GI50 (SF-268 CNS) | TGI (SF-268 CNS) | GI50 (SR leukemia) | TGI (SR leukemia) | GI50 (HOP-92 NSCLC) | TGI (HOP-92 NSCLC) | GI50 (A498 renal) | TGI (A498 renal) | GI50 (U251 CNS) | TGI (U251 CNS) |
| --- | --- | --- | --- | --- | --- | --- | --- | --- | --- | --- | --- | --- | --- | --- | --- | --- | --- | --- | --- | --- |
| Nc1ccccc1C#C/C=C\C#CC#C/C=C\C#Cc1ccccc1N | 8.96 µM | 32.4 µM | 7.84 µM | 28.4 µM | 5.17 µM | 23.3 µM | 2.74 µM | 11.8 µM | 22.8 µM | > 100 µM | 5.93 µM | 26.2 µM | 1.42 µM | 7 µM | 1.77 µM | 8.35 µM | 5.36 µM | 20.6 µM | 5.61 µM | 22.2 µM |
| CN(C)C(=O)OCc1nc2c(N3CCOCC3)nc(-c3ccccc3)nc2n1C | 1.36 µM | 2.93 µM | 1.44 µM | 2.95 µM | 1.62 µM | 3.35 µM | 0.45 µM | 1.7 µM | 4.06 µM | 13.5 µM | 1.39 µM | 2.77 µM | 0.252 µM | 2.98 µM | 0.399 µM | 1.24 µM | 1.34 µM | 2.68 µM | 1.47 µM | 2.98 µM |
| COC(=O)CCC(=O)N1C/C(=C\c2ccccc2)C(=O)/C(=C/c2ccccc2)C1 | – | 4.11 µM | – | 14.3 µM | – | 4.35 µM | – | 3.22 µM | – | 13.9 µM | – | 5.89 µM | – | 12.2 µM | – | 18.7 µM | – | 4.45 µM | – | 2.6 µM |
| COc1ccc2c3c([nH]c(=O)c2c1C(=O)O)-c1ccccc1CC3 | – | – | – | > 100 µM | – | > 100 µM | – | > 100 µM | – | > 100 µM | – | > 100 µM | – | > 100 µM | – | > 100 µM | – | > 100 µM | – | > 100 µM |
| CC(C)c1ccc(C2NC(=S)NC3=C2c2ccccc2C3=O)cc1 (stereo unspecified) | – | > 58.7 µM | – | > 58.6 µM | – | > 59.2 µM | – | > 58.5 µM | – | > 61.7 µM | – | > 52.4 µM | – | 30.6 µM | – | 48.3 µM | – | > 60.8 µM | – | > 58.7 µM |
| O=C1/C(=C/c2ccc3c(c2)OCCO3)CCC/C1=C\c1ccc2c(c1)OCCO2 | – | 59.7 µM | – | > 100 µM | – | – | – | > 100 µM | – | > 100 µM | – | > 100 µM | – | 85.8 µM | – | > 100 µM | – | 62.1 µM | – | 36.7 µM |
| C1OC1CN1CCN(CC2CO2)CC1 (stereo unspecified) | – | > 100 µM | – | > 100 µM | – | > 81.2 µM | – | > 100 µM | – | > 100 µM | – | > 100 µM | – | 23.3 µM | – | > 100 µM | – | > 100 µM | – | > 100 µM |
| O=C(O)[C@@H]1OCCOCCO[C@@H](C(=O)O)[C@H](C(=O)O)OCCOCCO[C@H]1C(=O)O | – | > 100 µM | – | > 100 µM | – | > 100 µM | – | > 100 µM | – | > 100 µM | – | > 100 µM | – | 40 µM | – | > 100 µM | – | > 100 µM | – | > 86.9 µM |
| Cc1ccc(S(=O)(=O)OCC#CCOS(=O)(=O)c2ccc(C)cc2)cc1 | 1.92 µM | 4.07 µM | 2.08 µM | 4.38 µM | 1.99 µM | 5.04 µM | 0.512 µM | 1.5 µM | 6.51 µM | 14.9 µM | 1.79 µM | 3.87 µM | 1.27 µM | 3.89 µM | 1.97 µM | 4.17 µM | 4.34 µM | 11.7 µM | 1.69 µM | 3.22 µM |
| CN1CCN(c2ccc(OC(F)(F)F)c(Nc3ncc4c(n3)-c3c(c(C(N)=O)nn3CCO)CC4)c2)CC1 | – | 28.6 µM and > 6.61 µM | 0.0907 µM and 0.169 µM | > 88.2 µM | 0.0397 µM and 0.0732 µM | 17.6 µM and > 10 µM | 0.584 µM and 0.831 µM | > 44.8 µM | 0.108 µM and 0.124 µM | 30.6 µM and > 10 µM | 0.0661 µM and 0.229 µM | 20.3 µM and > 10 µM | 0.0231 µM and 0.03 µM | 18.6 µM and > 3.19 µM | 0.545 µM and 0.242 µM | 14.3 µM and > 3.62 µM | 0.0469 µM and 0.101 µM | 0.638 µM and 0.588 µM | 0.052 µM and 0.0628 µM | 21.7 µM and > 10 µM |
| N#Cc1cnc2cc(OC[C@@H](O)CO)c(NC(=O)C3CCCC3)cc2c1Nc1ccc(OCc2cccc(F)c2)c(Cl)c1 | – | – | 1.33 µM | 6.74 µM | 1.87 µM | 11.9 µM | 5.61 µM | > 50 µM | 3.23 µM | 11.5 µM | 1.37 µM | 5.98 µM | 1.24 µM | > 50 µM | 0.99 µM | 2.48 µM | 2.78 µM | 13.4 µM | 6.79 µM | 15.6 µM |
| NC(=S)N=Nc1c(O)[nH]c2c(Cl)cc(Cl)cc12 | – | 86.2 µM | – | > 100 µM | – | > 100 µM | – | > 100 µM | – | > 100 µM | – | – | – | 70.4 µM | – | > 100 µM | – | > 100 µM | – | 40.9 µM |
| O=c1c2cc(Br)cc(Br)c2nc(CCCl)n1-c1ccc(O)c([N+](=O)[O-])c1 | – | 29.4 µM | – | 75.8 µM | – | 46.5 µM | – | – | – | 29.5 µM | – | 37.9 µM | – | 65.4 µM | – | 52.2 µM | – | 52 µM | – | 32.9 µM |
| COc1ccc(C(C)c2cc(OC)c(OC)c(OC)c2)cc1 (stereo unspecified) | 32.3 µM | > 50 µM | 0.373 µM | > 50 µM | 0.292 µM | > 50 µM | – | – | 0.159 µM | > 50 µM | 0.621 µM | > 50 µM | 0.0303 µM | > 50 µM | 3.6 µM | > 50 µM | 0.125 µM | > 50 µM | 0.173 µM | > 50 µM |
| CCOC(=O)C(Cc1c[nH]c2cc(N(CCO)CCO)ccc12)(NC(C)=O)C(=O)OCC | > 1000 µM | > 1000 µM | > 1000 µM | > 1000 µM | 491 µM | > 1000 µM | – | – | 480 µM | > 1000 µM | 619 µM | > 1000 µM | 16.8 µM and 34.6 µM | – | > 1000 µM | > 1000 µM | 570 µM | > 1000 µM | 309 µM | > 1000 µM |
| COc1cc(-n2cc(-c3ccccc3)[nH]c2=O)cc(OC)c1OC | – | – | 25.4 µM | > 100 µM | > 100 µM | > 100 µM | 37.8 µM | > 100 µM | 34.3 µM | > 100 µM | 28.5 µM | 89.7 µM | > 100 µM | > 100 µM | 20.6 µM | 83.1 µM | 35.1 µM | > 100 µM | 41.3 µM | > 100 µM |
